Values joined by “and” are separate entries in the source; they are usually repeats but may differ in a detail not shown here. Identical values can stand only once. Inconclusive results and toxic doses are left out. Rule for the calls: active = survival T/C of 150% or more; inactive = T/C below 125% in these data.
System: P388 leukemia ip, CD2F1 mice, survival T/C
Assay: NCI In Vivo Anticancer Drug Screen. Data for tumor model P388 Leukemia (intraperitoneal) in CD2F1 (CDF1) mice
Conditions: endpoint: median survival time, higher = longer survival
How it was run: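 Mice carrying the transplanted tumor received test compound or vehicle. Survival was recorded in each group, and the value is the treated-group measurement divided by that of the vehicle-treated control group.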

[1] = dose: 3.75 mg/kg/injection, schedule: Q01DX005 (ip), vehicle: saline with Tween-80
[2] = dose: 60.0 mg/kg/injection, schedule: Q01DX005 (ip), vehicle: saline with Tween-80
[3] = dose: 120.0 mg/kg/injection, schedule: Q01DX005 (ip), vehicle: saline with Tween-80
[4] = dose: 240.0 mg/kg/injection, schedule: Q01DX005 (ip), vehicle: saline with Tween-80

Measured: T/C

COc1ccc2nc3cc(Cl)ccc3c(NCCCNCCCCNCCCNc3c4ccc(Cl)cc4nc4ccc(OC)nc34)c2n1
inactive: dose: 0.93 mg/kg/injection, schedule: Q01DX005 (ip), vehicle: saline with Tween-80 100 % of control | dose: 1.87 mg/kg/injection, schedule: Q01DX005 (ip), vehicle: saline with Tween-80 106 % of control | [1] 121 % of control

S=C(S)N1CCCCCC1
inactive: dose: 60.0 mg/kg/injection, schedule: Q01DX005 (ip), vehicle: suspension in saline 97 % of control | dose: 120.0 mg/kg/injection, schedule: Q01DX005 (ip), vehicle: suspension in saline 95 % of control

CNC(=O)NC1OC(CO)C(O)C1O (stereo not drawn)
inactive: dose: 100.0 mg/kg/injection, schedule: Q01DX001 (ip), vehicle: water 97 % of control | dose: 200.0 mg/kg/injection, schedule: Q01DX001 (ip), vehicle: water 103 % of control | dose: 400.0 mg/kg/injection, schedule: Q01DX001 (ip), vehicle: water 104 % of control

COc1ccc(CNC(=O)C2C(=O)C(=O)N(Cc3ccc(OC)c(OC)c3)C2=O)cc1OC (stereo not drawn)
inactive: dose: 50.0 mg/kg/injection, schedule: Q01DX009 (ip), vehicle: Klucel (hydroxypropylcellulose) (HPC) 105 % of control | dose: 100.0 mg/kg/injection, schedule: Q01DX009 (ip), vehicle: Klucel (hydroxypropylcellulose) (HPC) 96 % of control | dose: 200.0 mg/kg/injection, schedule: Q01DX009 (ip), vehicle: Klucel (hydroxypropylcellulose) (HPC) 103 % of control

Cc1ncc(CSC(=N)N)n1Cc1ccccc1
inactive: dose: 8.5 mg/kg/injection, schedule: Q01DX009 (ip), vehicle: saline 115 % of control

Nc1ccc2[se]ccc2c1
inactive: dose: 12.5 mg/kg/injection, schedule: Q01DX009 (ip), vehicle: suspension in saline 105 % of control | dose: 25.0 mg/kg/injection, schedule: Q01DX009 (ip), vehicle: suspension in saline 100 % of control | dose: 50.0 mg/kg/injection, schedule: Q01DX009 (ip), vehicle: saline 91 % of control | dose: 50.0 mg/kg/injection, schedule: Q01DX009 (ip), vehicle: suspension in saline 100 % of control | dose: 200.0 mg/kg/injection, schedule: Q01DX009 (ip), vehicle: saline 100 % of control

CC(C)(F)c1nc2ncncc2[nH]c1=O
inactive: dose: 100.0 mg/kg/injection, schedule: Q01DX001 (ip), vehicle: saline with Tween-80 103 % of control | dose: 200.0 mg/kg/injection, schedule: Q01DX001 (ip), vehicle: saline with Tween-80 103 % of control | dose: 400.0 mg/kg/injection, schedule: Q01DX001 (ip), vehicle: saline with Tween-80 93 % of control

CC(=O)c1c(C)nc2c(-c3ccccc3)[nH]c(C)c2c1C
inactive: dose: 100.0 mg/kg/injection, schedule: Q04DX003 (ip), vehicle: Klucel (hydroxypropylcellulose) (HPC) 100 % of control | dose: 200.0 mg/kg/injection, schedule: Q04DX003 (ip), vehicle: Klucel (hydroxypropylcellulose) (HPC) 102 % of control | dose: 400.0 mg/kg/injection, schedule: Q04DX003 (ip), vehicle: Klucel (hydroxypropylcellulose) (HPC) 111 % of control

Cc1ccc(C)c(N=Nc2ccc(O)cc2)c1
inactive: dose: 25.0 mg/kg/injection, schedule: Q01DX009 (ip), vehicle: saline with Tween-80 100 % of control | dose: 50.0 mg/kg/injection, schedule: Q01DX009 (ip), vehicle: saline with Tween-80 109 % of control | dose: 50.0 mg/kg/injection, schedule: Q04DX003 (ip), vehicle: saline with Tween-80 104 % of control | dose: 100.0 mg/kg/injection, schedule: Q01DX009 (ip), vehicle: saline with Tween-80 100 % of control | dose: 100.0 mg/kg/injection, schedule: Q04DX003 (ip), vehicle: saline with Tween-80 100 % of control

CCOc1ccncc1[N+](=O)[O-]
inactive: dose: 25.0 mg/kg/injection, schedule: Q01DX009 (ip), vehicle: saline sonified 100 % of control | dose: 50.0 mg/kg/injection, schedule: Q01DX009 (ip), vehicle: saline sonified 109 % of control | [2] 101 % of control | dose: 100.0 mg/kg/injection, schedule: Q01DX009 (ip), vehicle: saline sonified 90 % of control | [3] 93 % of control | [4] 95 % of control

CC1OC(O[C@@H]2OC=C(C=O)[C@@]3(O)CC[C@H](C)[C@@H]23)C(O)C(O)C1O (stereo partly drawn)
inactive: dose: 6.25 mg/kg/injection, schedule: Q01DX005 (ip), vehicle: Klucel (hydroxypropylcellulose) (HPC) 100 % of control | dose: 12.5 mg/kg/injection, schedule: Q01DX005 (ip), vehicle: Klucel (hydroxypropylcellulose) (HPC) 116 % of control | dose: 25.0 mg/kg/injection, schedule: Q01DX005 (ip), vehicle: Klucel (hydroxypropylcellulose) (HPC) 95 % of control | dose: 50.0 mg/kg/injection, schedule: Q01DX005 (ip), vehicle: Klucel (hydroxypropylcellulose) (HPC) 87 % of control

OCC(COCCCCCCCCCCCCCC1C=CCC1)OCCCCCCCCCCCCCC1C=CCC1 (stereo not drawn)
inactive: dose: 100.0 mg/kg/injection, schedule: Q04DX003 (ip), vehicle: saline 96 % of control | dose: 200.0 mg/kg/injection, schedule: Q04DX003 (ip), vehicle: saline 89 % of control | dose: 400.0 mg/kg/injection, schedule: Q04DX003 (ip), vehicle: saline 93 % of control

N#CCCSC(=S)C1CCCCC1=N (stereo not drawn)
inactive: dose: 50.0 mg/kg/injection, schedule: Q01DX009 (ip), vehicle: saline + alcohol 109 % of control | dose: 100.0 mg/kg/injection, schedule: Q01DX009 (ip), vehicle: saline + alcohol 111 % of control | dose: 200.0 mg/kg/injection, schedule: Q01DX009 (ip), vehicle: saline + alcohol 109 % of control

O=C1OC2C(O)COC23OC(O)CCC13O (stereo not drawn)
inactive: dose: 15.0 mg/kg/injection, schedule: Q01DX005 (ip), vehicle: saline with Tween-80 100 % of control | dose: 30.0 mg/kg/injection, schedule: Q01DX005 (ip), vehicle: saline with Tween-80 102 % of control | [2] 102 % of control | dose: 60.0 mg/kg/injection, schedule: Q01DX005 (ip), vehicle: saline 104 % of control | [3] 105 % of control | dose: 120.0 mg/kg/injection, schedule: Q01DX005 (ip), vehicle: saline 102 % of control | [4] 105 % of control | dose: 240.0 mg/kg/injection, schedule: Q01DX005 (ip), vehicle: saline 102 % of control

O=c1c2ccccc2[nH]c2cc([N+](=O)[O-])cc([N+](=O)[O-])c12
inactive: dose: 50.0 mg/kg/injection, schedule: Q01DX005 (ip), vehicle: saline with Tween-80 90 % of control | dose: 100.0 mg/kg/injection, schedule: Q01DX005 (ip), vehicle: saline with Tween-80 90 % of control | dose: 200.0 mg/kg/injection, schedule: Q01DX005 (ip), vehicle: saline with Tween-80 98 % of control

CCOC(=O)c1ccc(NC(=O)Nc2nc3ccccc3s2)cc1
inactive: dose: 25.0 mg/kg/injection, schedule: Q01DX009 (ip), vehicle: distilled water + Tween-80 97 % of control | dose: 50.0 mg/kg/injection, schedule: Q01DX009 (ip), vehicle: distilled water + Tween-80 97 % of control | dose: 100.0 mg/kg/injection, schedule: Q01DX009 (ip), vehicle: distilled water + Tween-80 90 % of control | dose: 200.0 mg/kg/injection, schedule: Q01DX009 (ip), vehicle: distilled water + Tween-80 90 % of control | dose: 400.0 mg/kg/injection, schedule: Q01DX009 (ip), vehicle: distilled water + Tween-80 90 % of control

C/C(=N\NC(=S)N1CCN(c2cnccn2)CC1)c1ccccn1
inactive: [1] 120 % of control | dose: 7.5 mg/kg/injection, schedule: Q01DX005 (ip), vehicle: saline with Tween-80 120 % of control and 122 % of control

O=C(O)[C@@H](NC(=O)C(Cl)(Cl)Cl)[C@@H]1CC(Br)=NO1
inactive: dose: 15.0 mg/kg/injection, schedule: Q01DX005 (ip), vehicle: distilled water + Tween-80 107 % of control and 118 % of control and 122 % of control | dose: 30.0 mg/kg/injection, schedule: Q01DX005 (ip), vehicle: distilled water + Tween-80 107 % of control | dose: 120.0 mg/kg/injection, schedule: Q01DX005 (ip), vehicle: distilled water + Tween-80 114 % of control and 98 % of control

CCCCOc1ccc2nc3cc(Cl)ccc3c(Cl)c2n1
inactive: dose: 6.25 mg/kg/injection, schedule: Q01DX005 (ip), vehicle: saline with Tween-80 92 % of control | dose: 12.5 mg/kg/injection, schedule: Q01DX005 (ip), vehicle: saline with Tween-80 93 % of control | dose: 25.0 mg/kg/injection, schedule: Q01DX005 (ip), vehicle: saline with Tween-80 86 % of control
